Results taken from publication doi:10.1101/2024.09.05.611349v1 (biorxiv, 2024).
Values after ≈ are worked out from the molar mass of the structure shown.

Columns and labels:
[1] = system: Staphylococcus epidermidis MSSE 15-64; experiment: microbe, parasite or virus in culture; parameters: species or system gram-positive clinical isolates; details: Staphylococcus epidermidis, MSSE1564, read-out: MIC(μg/ml) / 1b
[2] = system: Staphylococcus epidermidis MSSE 15-4; experiment: microbe, parasite or virus in culture; parameters: species or system gram-positive clinical isolates; details: Staphylococcus epidermidis, MSSE154, read-out: MIC(μg/ml) / 1b
[3] = system: Staphylococcus epidermidis MSSE 15-1; experiment: microbe, parasite or virus in culture; parameters: species or system gram-positive clinical isolates; details: Staphylococcus epidermidis, MSSE151, read-out: MIC(μg/ml) / 1b
[4] = system: Staphylococcus epidermidis MSSE 15-59; experiment: microbe, parasite or virus in culture; parameters: species or system gram-positive clinical isolates; details: Staphylococcus epidermidis, MSSE1559, read-out: MIC(μg/ml) / 1b
[5] = system: Staphylococcus epidermidis MSSE 15-58; experiment: microbe, parasite or virus in culture; parameters: species or system gram-positive clinical isolates; details: Staphylococcus epidermidis, MSSE1558, read-out: MIC(μg/ml) / 1b
[6] = system: Staphylococcus epidermidis MSSE 15-61; experiment: microbe, parasite or virus in culture; parameters: species or system gram-positive clinical isolates; details: Staphylococcus epidermidis, MSSE1561, read-out: MIC(μg/ml) / 1b
in vitro [7] = details: Mouse liver microsomes
in vitro [8] = details: Mouse plasma
S. aureus ATCC 29213 = experiment: microbe, parasite or virus in culture; details: Staphylococcus aureus, ATCC29213, read-out: MIC (µg/mL)

CCCCCOc1ccc(C(=O)NNC(=S)NC(C)=O)cc1 [1b, N-(2-(4-(n-pentoxy)benzoyl)hydrazine-1-carbonothioyl)acetamide]
MIC [1]: 8 µg/mL (≈ 24.7 µM)
MIC [2]: 1 µg/mL (≈ 3.09 µM)
MIC [3]: 1 µg/mL (≈ 3.09 µM)
MIC [4]: 1 µg/mL (≈ 3.09 µM)
MIC [5]: 1 µg/mL (≈ 3.09 µM)
MIC [6]: 1 µg/mL (≈ 3.09 µM)
Mouse liver microsomes T1/2 (in vitro [7]): 0.472 h
Mouse plasma T1/2 (in vitro [8]): >2 h
MIC (S. aureus ATCC 29213): 0.78 µg/mL (≈ 2.41 µM)
